{"source": "patent US20190298694A1", "about": "“Use Of Carbamate Compound For Preventing Or Treating Fibromyalgia Or Functional Syndrome Associated With Fibromyalgia” (SK BIOPHARMACEUTICALS CO., LTD., priority 2016, published 2019)", "tested_on": "mechanical allodynia induced by injection of acidic saline into gastrocnemius muscle", "assay": "Pain suppression in animal model of fibromyalgia: mechanical allodynia induced by repeated intramuscular acidic saline, paw withdrawal threshold by von Frey filaments (up-down method)", "format": "in vivo, rats (Sprague-Dawley)", "details": "for Area under the curve of the paw withdrawal threshold curve over time, compared with the vehicle group: ip", "excerpt": "Musculoskeletal pain is a major feature of fibromyalgia. A model that is linked to musculoskeletal pain in humans has been developed by Sluka K A, which model is characterized by mechanical sensitization induced by repeated intramuscular injections of acidic saline.\nThis experiment evaluated the effect of the test compound on persistent mechanical allodynia, which may well represent muscle pain or tenderness observed in patients with fibromyalgia. Repeated injections of acidic saline into the gastrocnemius muscle of rats lead to mechanical allodynia due to central sensitization (Sluka K A et. al., Unilateral intramuscular injections of acidic saline produce a bilateral, long-lasting hyperalgesia, Muscle Nerve. 2001).\nMale rats (Sprague-Dawley, 150-200 g, 6 weeks old, Orient Bio Co., Ltd.) were purchased and subjected to acclimatization for more than 1 week in an animal chamber. The experimental animals were maintained under conditions of light-and-darkness cycle of 12 hours, a temperature of 22 to 25° C., a relative humidity of 40 to 60%, and free access to water and food.\nMechanical allodynia was assessed by measuring the paw withdrawal threshold of the rat right hind paw using Dixon's “up-down method” (Chaplan et. al., Quantitative assessment of tactile allodynia in the rat paw. J Neurosci Methods, 1994; Dixon W J, Efficient analysis of experimental observations, Annu Rev Pharmacol Toxicol. 1980). First, the rats were placed in an acrylic box (13×25×13 cm3) located on a wire mesh installed at a height of about 35 cm from the floor and stabilized for more than 20 minutes. […] von Frey filaments with various bending forces (0.2, 0.4, 0.6, 1.0, 2.0, 4.0, 6.0, 8.0, 15.0 g) were used. Starting with a filament of 2.0 g, bending force was applied perpendicular to the sole surface. In the case of no withdrawal (avoidance response), the next higher bending force filament was applied, or, in the case of withdrawal (avoidance response), the next lower bending force filament was applied. In order to obtain at least six (6) response results, the application of filaments was proceeded four (4) more times after showing the change in withdrawal.\nThe baseline withdrawal (avoidance response) threshold for mechanical stimulation on the right hind paw of rats was measured. 100 μl of preservative-free acidic saline (0.9% sodium chloride, pH 4.0) was intramuscularly injected into the right gastrocnemius muscle of the rats. After 5 days, the acidic saline was intramuscularly injected again into the same region by the same method. At 7 or 8 days after the second administration of acidic saline, induction of mechanical allodynia was confirmed by measuring withdrawal (avoidance response) thresholds to mechanical stimulation on the right hind paw, and rats with a mechanical withdrawal (avoidance response) threshold of less than 4.5 g were used for the evaluation of the test drug (Sluka K A et. al., Unilateral intramuscular injections of acidic saline produce a bilateral, long-lasting hyperalgesia, Muscle Nerve. 2001).\nThe test compound was prepared as a solution using 30% PEG 400 and 70% distilled water on a volume basis. Each solution was administered intraperitoneally to the rats at a volume of 3 ml per kg of rat. Withdrawal (avoidance response) thresholds to mechanical stimulation were measured at 30 minutes, 1 hour, 2 hours and 4 hours after drug administration.\n[% MPE=(threshold over time after drug treatment−threshold at 0 hour)/(threshold of normal group−threshold at 0 hour)×100]\nThe vehicle or the test compound was administered intraperitoneally at doses of 5, 10 and 20 mg/kg, and withdrawal thresholds to mechanical stimulation were measured at 30 minutes, 1 hour, 2 hours and 4 hours.", "note": "Marks after values point to notes of the source that are not given here.", "data": [{"smiles": "NC(=O)O[C@@H](Cn1ncnn1)c1ccccc1Cl", "note": "[Test compound]", "values": [{"measurement": "Withdrawal threshold of the right hind paw to mechanical stimulation (mean)", "setting": "5 mg/kg ip group, 0 h (pre-dose, after acidic saline)", "result": 2.97, "unit": "g"}, {"measurement": "Withdrawal threshold of the right hind paw to mechanical stimulation (mean)", "setting": "5 mg/kg ip group, baseline, prior to first injection of acidic saline (pre-dose)", "result": 13.69, "unit": "g"}, {"measurement": "Effect (%) (% MPE, percent of maximum possible effect)", "setting": "5 mg/kg ip, 30 min", "result": 10.8, "unit": "%"}, {"measurement": "Withdrawal threshold of the right hind paw to mechanical stimulation (mean)", "setting": "5 mg/kg ip, 30 min after administration", "result": 4.02, "unit": "g"}, {"measurement": "Effect (%) (% MPE, percent of maximum possible effect)", "setting": "5 mg/kg ip, 1 h", "result": 35.6, "unit": "%"}, {"measurement": "Withdrawal threshold of the right hind paw to mechanical stimulation (mean)", "setting": "5 mg/kg ip, 1 h after administration", "result": "6.41^d g"}, {"measurement": "Effect (%) (% MPE, percent of maximum possible effect)", "setting": "5 mg/kg ip, 2 h", "result": 38.3, "unit": "%"}, {"measurement": "Withdrawal threshold of the right hind paw to mechanical stimulation (mean)", "setting": "5 mg/kg ip, 2 h after administration", "result": "6.67^e g"}, {"measurement": "Effect (%) (% MPE, percent of maximum possible effect)", "setting": "5 mg/kg ip, 4 h", "result": 10.7, "unit": "%"}, {"measurement": "Withdrawal threshold of the right hind paw to mechanical stimulation (mean)", "setting": "5 mg/kg ip, 4 h after administration", "result": 4.01, "unit": "g"}, {"measurement": "Withdrawal threshold of the right hind paw to mechanical stimulation (mean)", "setting": "10 mg/kg ip group, 0 h (pre-dose, after acidic saline)", "result": 3.20, "unit": "g"}, {"measurement": "Withdrawal threshold of the right hind paw to mechanical stimulation (mean)", "setting": "10 mg/kg ip group, baseline, prior to first injection of acidic saline (pre-dose)", "result": 14.29, "unit": "g"}, {"measurement": "Effect (%) (% MPE, percent of maximum possible effect)", "setting": "10 mg/kg ip, 30 min", "result": 11.4, "unit": "%"}, {"measurement": "Withdrawal threshold of the right hind paw to mechanical stimulation (mean)", "setting": "10 mg/kg ip, 30 min after administration", "result": 4.27, "unit": "g"}, {"measurement": "Effect (%) (% MPE, percent of maximum possible effect)", "setting": "10 mg/kg ip, 1 h", "result": 47.5, "unit": "%"}, {"measurement": "Withdrawal threshold of the right hind paw to mechanical stimulation (mean)", "setting": "10 mg/kg ip, 1 h after administration", "result": "7.68^e g"}, {"measurement": "Effect (%) (% MPE, percent of maximum possible effect)", "setting": "10 mg/kg ip, 2 h", "result": 43.5, "unit": "%"}, {"measurement": "Withdrawal threshold of the right hind paw to mechanical stimulation (mean)", "setting": "10 mg/kg ip, 2 h after administration", "result": "7.30^e g"}, {"measurement": "Effect (%) (% MPE, percent of maximum possible effect)", "setting": "10 mg/kg ip, 4 h", "result": 11.3, "unit": "%"}, {"measurement": "Withdrawal threshold of the right hind paw to mechanical stimulation (mean)", "setting": "10 mg/kg ip, 4 h after administration", "result": 4.26, "unit": "g"}, {"measurement": "Area under the curve of the paw withdrawal threshold curve over time, compared with the vehicle group", "setting": "10 mg/kg", "result": "statistically significant effects"}, {"measurement": "Withdrawal threshold of the right hind paw to mechanical stimulation (mean)", "setting": "20 mg/kg ip group, 0 h (pre-dose, after acidic saline)", "result": 2.95, "unit": "g"}, {"measurement": "Withdrawal threshold of the right hind paw to mechanical stimulation (mean)", "setting": "20 mg/kg ip group, baseline, prior to first injection of acidic saline (pre-dose)", "result": 13.83, "unit": "g"}, {"measurement": "Effect (%) (% MPE, percent of maximum possible effect)", "setting": "20 mg/kg ip, 30 min", "result": 44.6, "unit": "%"}, {"measurement": "Withdrawal threshold of the right hind paw to mechanical stimulation (mean)", "setting": "20 mg/kg ip, 30 min after administration", "result": "7.28^d g"}, {"measurement": "Effect (%) (% MPE, percent of maximum possible effect)", "setting": "20 mg/kg ip, 1 h", "result": 73.2, "unit": "%"}, {"measurement": "Withdrawal threshold of the right hind paw to mechanical stimulation (mean)", "setting": "20 mg/kg ip, 1 h after administration", "result": "10.04^e g"}, {"measurement": "Effect (%) (% MPE, percent of maximum possible effect)", "setting": "20 mg/kg ip, 2 h", "result": 82.2, "unit": "%"}, {"measurement": "Withdrawal threshold of the right hind paw to mechanical stimulation (mean)", "setting": "20 mg/kg ip, 2 h after administration", "result": "10.92^e g"}, {"measurement": "Effect (%) (% MPE, percent of maximum possible effect)", "setting": "20 mg/kg ip, 4 h", "result": 16.2, "unit": "%"}, {"measurement": "Withdrawal threshold of the right hind paw to mechanical stimulation (mean)", "setting": "20 mg/kg ip, 4 h after administration", "result": 4.52, "unit": "g"}, {"measurement": "Area under the curve of the paw withdrawal threshold curve over time, compared with the vehicle group", "setting": "20 mg/kg", "result": "statistically significant effects"}, {"measurement": "Area under the curve of the paw withdrawal threshold curve over time", "setting": "5, 10 and 20 mg/kg ip, dose dependence", "result": "dose-dependent effect"}, {"measurement": "Muscle mechanical hyperalgesia in the chronic myalgia model", "setting": "dose-dependent manner", "result": "significantly reduces"}, {"measurement": "Mechanical allodynia induced by repeated injections of acidic saline", "setting": "intraperitoneally at doses of 5, 10 and 20 mg/kg", "result": "significantly inhibited"}, {"measurement": "Effect in the fibromyalgia disease model", "setting": "overall conclusion", "result": "significant effect"}]}]}
